In PubChem BioAssay (NCI) one finds TGI data, which are given here for 9 compounds.

Test systems include HOP-92 NSCLC; DU-145 prostate; T-47D breast; RPMI-8226 leukemia; BT-549 breast; NCI/ADR-RES ovarian; ACHN renal; A549 NSCLC; NCI-H460 lung; OVCAR-8 ovarian; 786-0 renal; SNB-75 CNS; EKVX NSCLC; U251 CNS; SF-268 CNS; NCI-H23 lung.
Holding throughout (assay): growth of human tumour cells (NCI), 48 h

The structures appear in SMILES notation.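 Values below derive from 48-hour exposures of cells grown in 96-well plates, with endpoints linearly interpolated between the two concentrations bracketing the appropriate inhibition level. TGI denotes the concentration required for complete inhibition of growth.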

As to `CC1CCC2C(C)C(OC(=O)CCC(=O)O)OC3OC4(C)CCC1C32OO4` (stereo not given), the TGI in the experiment on HOP-92 NSCLC was 31 µM; in the experiment with DU-145 prostate, 63.4 µM; in the experiment on T-47D breast, more than 100 µM; in the experiment with RPMI-8226 leukemia, 24.1 µM; in the experiment on BT-549 breast it was more than 100 µM; in the experiment with NCI/ADR-RES ovarian it was more than 100 µM. Further, the TGI is 18.3 µM with ACHN renal; 29.9 µM in the experiment on A549 NSCLC; 33.4 µM in the experiment with NCI-H460 lung; more than 100 µM in the experiment with OVCAR-8 ovarian; more than 100 µM in the experiment on 786-0 renal; more than 100 µM with SNB-75 CNS. Moreover, the TGI in the experiment with EKVX NSCLC was 32.7 µM; with U251 CNS it was 31.3 µM; in the experiment with SF-268 CNS, more than 100 µM.

On to `Cn1c(=O)oc2cc(C(O)CN3CCN(Cc4ccc5c(c4)OCO5)CC3)ccc21` (stereo not given), for which the TGI in the experiment on HOP-92 NSCLC, with NCI-H23 lung, with DU-145 prostate, in the experiment with T-47D breast, in the experiment on BT-549 breast and with NCI/ADR-RES ovarian was more than 100 µM throughout. Besides, the TGI in the experiment with ACHN renal, with A549 NSCLC, in the experiment with NCI-H460 lung, in the experiment with OVCAR-8 ovarian, in the experiment with 786-0 renal and with SNB-75 CNS was more than 100 µM throughout. Besides, the TGI with EKVX NSCLC, with U251 CNS and in the experiment with SF-268 CNS was more than 100 µM each time.

In the case of `COc1cc2c(cc1OC)C1CN3CCCC3C(O)C1c1cc(OC)c(OC)cc1-2` (stereo not given), the TGI with HOP-92 NSCLC, in the experiment on NCI-H23 lung, in the experiment on DU-145 prostate, with T-47D breast, in the experiment on RPMI-8226 leukemia and with BT-549 breast was more than 100 µM in each case. Besides, the TGI with NCI/ADR-RES ovarian, with ACHN renal, with A549 NSCLC, in the experiment on NCI-H460 lung, in the experiment on OVCAR-8 ovarian and in the experiment on 786-0 renal was more than 100 µM throughout. Further, the TGI with EKVX NSCLC, in the experiment on U251 CNS and in the experiment with SF-268 CNS was more than 100 µM throughout.

As to `c1ccc(C2(c3cc4ccccc4[nH]3)OCCO2)nc1`, the TGI with HOP-92 NSCLC, with NCI-H23 lung, in the experiment with DU-145 prostate, with T-47D breast, with BT-549 breast and with NCI/ADR-RES ovarian was more than 100 µM throughout. The TGI with ACHN renal, in the experiment with A549 NSCLC, in the experiment on NCI-H460 lung, with OVCAR-8 ovarian, in the experiment on 786-0 renal and with SNB-75 CNS was more than 100 µM each time. Besides, the TGI in the experiment with EKVX NSCLC, with U251 CNS and with SF-268 CNS was more than 100 µM in each case.

With `CNc1ccc(C)cc1S(=O)(=O)c1ccccc1[N+](=O)[O-]`, the TGI in the experiment with NCI-H23 lung, with DU-145 prostate, with T-47D breast, in the experiment with RPMI-8226 leukemia, in the experiment on BT-549 breast and with NCI/ADR-RES ovarian was more than 100 µM each time. The TGI in the experiment with ACHN renal, in the experiment on A549 NSCLC, in the experiment on NCI-H460 lung, in the experiment with OVCAR-8 ovarian, in the experiment with 786-0 renal and with SNB-75 CNS was more than 100 µM throughout. The TGI in the experiment with EKVX NSCLC, with U251 CNS and in the experiment with SF-268 CNS was more than 100 µM each time.

Consider `COc1ccc(C[C@@H]2OC3(C=CC(=O)CC3Sc3ccccc3)O[C@H]2Cc2ccc(OC)cc2)cc1` (stereo not given in full), for which the TGI with HOP-92 NSCLC amounted to 2.49 µM; in the experiment on NCI-H23 lung, 5.16 µM; in the experiment with DU-145 prostate, 11.6 µM; in the experiment with T-47D breast, 3.74 µM; in the experiment with RPMI-8226 leukemia, 1.31 µM; in the experiment with BT-549 breast it was 1.49 µM. The TGI was determined as 3.64 µM with NCI/ADR-RES ovarian; 2.81 µM in the experiment with ACHN renal; 12.7 µM with A549 NSCLC; 12.1 µM with NCI-H460 lung; 0.966 µM in the experiment with OVCAR-8 ovarian; 0.365 µM in the experiment with 786-0 renal. Further, the TGI in the experiment on SNB-75 CNS amounted to 3.05 µM; with U251 CNS, 2.78 µM; in the experiment on SF-268 CNS it was 1.75 µM.

With `O=S(=O)(Cc1ccccc1)c1nnc(S(=O)(=O)c2ccc(Cl)cc2)s1`, the TGI with NCI-H23 lung was 54.2 µM; in the experiment with DU-145 prostate, 34.3 µM; in the experiment with T-47D breast, more than 100 µM; in the experiment with RPMI-8226 leukemia, 61.9 µM; in the experiment with BT-549 breast, 41.6 µM; in the experiment on NCI/ADR-RES ovarian, 77.9 µM. The TGI was 36.4 µM in the experiment with ACHN renal; 68.1 µM in the experiment on A549 NSCLC; 48.2 µM in the experiment with NCI-H460 lung; 42.8 µM with OVCAR-8 ovarian; 49.5 µM with 786-0 renal; 32.5 µM in the experiment with SNB-75 CNS. For the same compound, the TGI with EKVX NSCLC came out at 62 µM; in the experiment on U251 CNS it was 94.9 µM; in the experiment on SF-268 CNS it was 63.4 µM.

In the case of `CC(NC1=NCCO1)c1ccsc1` (stereo not given), the TGI with HOP-92 NSCLC is 92.5 µM; in the experiment on NCI-H23 lung, more than 100 µM; in the experiment with DU-145 prostate, more than 100 µM; with T-47D breast it was more than 100 µM; with RPMI-8226 leukemia it was 59.9 µM; in the experiment on BT-549 breast it was more than 100 µM. The TGI in the experiment on NCI/ADR-RES ovarian is more than 100 µM; with ACHN renal, more than 100 µM; with A549 NSCLC, more than 100 µM; in the experiment with NCI-H460 lung, 33.2 µM; in the experiment with OVCAR-8 ovarian, 77.7 µM; with 786-0 renal it was 42.9 µM. In addition, the TGI with SNB-75 CNS was 47.3 µM; in the experiment with EKVX NSCLC it was more than 100 µM; in the experiment on U251 CNS it was 36.8 µM.

For the compound `Cc1c(CN2CCOCC2)c(CN2CCOCC2)c(C)n1-c1ccc(Cl)cn1`, the TGI in the experiment on NCI-H23 lung, in the experiment on DU-145 prostate, in the experiment on T-47D breast, in the experiment on RPMI-8226 leukemia, in the experiment with BT-549 breast and in the experiment with NCI/ADR-RES ovarian was more than 100 µM in each case. Further, the TGI in the experiment on ACHN renal, with A549 NSCLC, with NCI-H460 lung, in the experiment with OVCAR-8 ovarian, in the experiment on 786-0 renal and in the experiment on SNB-75 CNS was more than 100 µM throughout. Further, the TGI in the experiment with EKVX NSCLC, with U251 CNS and with SF-268 CNS was more than 100 µM throughout.
